Measurements published in patent US20090022803A1, “Oral Formulations For Delivery of Catecholic Butanes Including Ndga Compounds” (priority 2005, published 2009).
Read-outs that look alike come from different tables or passages of the source.

Format: physicochemical
Settings: for Dissolution After Heating: 90° C.
Experimental: A 10 mL solution of M4N at a concentration of about 10 mg/mL in 40% BP-β-CD was made as follows. About 10 mL of the 40% HP-β-CD solution were added to a glass beaker containing a stir bar. The beaker was placed on a magnetic plate and the stir bar was set to stir at medium speed. About […] of M4N were slowly added to the 40% HP-β-CD in the center of the beaker with the aid of a spatula. The M4N/40% HP-β-CD mixture was stirred for 2 hr or until all M4N was uniformly suspended without any clumps being present. The M4N/40% HP-β-CD mixture was optionally heated at 80° C. for about 30 min. (or longer if a larger volume of solution was desired, for example, 1 hr at 80° C. for 100 mL of the M4N/HP-β-CD mixture), or longer as needed to ensure complete dissolution of M4N. […] The final M4N/40% HP-β-CD solution was stored at room temperature and was kept protected from light. This process may be scaled up or down to obtain the requisite volume or concentration of M4N. Formulations containing M4N in other cyclodextrin solutions may be similarly made, such as, for example, by substituting HP-β-CD in the process described above with other cyclodextrins. […]
A 10 mL solution of M4N at a concentration of about 10 mg/mL in 50% HP-β-CD/0.5% HPMC was made as follows. About 10 mL of the 50% HP-β-CD/0.5% HPMC solution were added to a glass beaker containing a stir bar. The beaker was placed on a magnetic plate and the stir bar was set to stir at medium speed. About 100 mg of M4N were slowly added to the 50% HP-β-CD/0.5% HPMC in the center of the beaker with the aid of a spatula. The M4N/50% HP-β-CD/0.5% HPMC mixture was stirred for 24 hr or until all M4N was uniformly suspended without any clumps being present. The M4N/50% HP-β-CD/0.5% HPMC mixture was heated at about 90° C. for about 30 min. (or longer if a larger volume of solution was desired, for example, 1 hr at 90° C. for 500 mL of the M4N/50% HP-β-CD/0.5% HPMC mixture), or longer as needed to ensure complete dissolution of M4N. […] The final M4N/50% HP-β-CD/0.5% HPMC solution was stored at room temperature and was kept protected from light.
A 10 mL solution of M4N at a concentration of about 20 mg/mL in 5% EC (w/v) (the “EC formulation”) was made as follows. About 10 mL of 5% EC formulation, made as described above, were added to a glass beaker containing a stir bar. The beaker was placed on a magnetic plate and the stir bar was set to stir at medium speed, and covered with a round Teflon® cover. About 200 mg of M4N were slowly added to the 5% EC formulation in the center of the beaker with the aid of a spatula to prevent M4N from sticking to the beaker wall. The M4N/EC mixture was stirred for 2 hr or until all M4N had dissolved or was uniformly suspended without any clumps being present. The M4N/EC mixture was heated at about 60° C. for about 30 min. (or longer if a larger volume of solution was desired, for example, 1 hr at 60° C. for 500 mL of the M4N/EC mixture), or longer as needed to ensure complete dissolution of M4N. […] The final M4N/EC solution was stored at room temperature and was kept protected from light.
A 10 mL solution of M4N at a concentration of about 50 mg/mL in sesame oil was made as follows. About 10 mL of sesame oil were added to a glass beaker containing a stir bar. The beaker was placed on a magnetic plate and the stir bar was set to stir at medium speed. About 500 mg of M4N were slowly added to the sesame oil in the center of the beaker with the aid of a spatula to prevent M4N from sticking to the beaker wall. The M4N/sesame oil mixture was stirred for about 2 hr or until all M4N had dissolved or was uniformly suspended without any clump being present. The M4N/sesame oil mixture was heated at about 60° C. for about 30 min. (or longer if a larger volume of solution was desired, for example, 1 hr at 60° C. for 500 mL of the M4N/sesame oil mixture), or longer as need to ensure complete dissolution of M4N. […]

[1] = M4N 1 mg/mL in 40% HP-β-CD, 1% PVP (w/v)
[2] = M4N 1 mg/mL in 50% HP-β-CD, 0.5% HPMC
[3] = M4N 1 mg/mL in 50% HP-β-CD, 1.25% PVP (w/v)
[4] = M4N 3.13 mg/mL in 5% HP-β-CD, 12.5% PEG 300 (v/v)
[5] = M4N 4.17 mg/mL in 6.7% HP-β-CD, 16.7% PEG 300 (v/v)
[6] = M4N 6.25 mg/mL in 10% HP-β-CD, 25% PEG 300 (v/v)
Throughout, for Dissolution After Cool Down: key: N represents 'No'; Y represents 'Yes.'.

For `COc1ccc(C[C@@H](C)[C@@H](C)Cc2ccc(OC)c(OC)c2)cc1OC` [Formulation M4N, meso-1,4-bis(3,4-dimethoxyphenyl)-2,3-dimethylbutane], the “Dissolution After Rotation” value (M4N 1 mg/mL in 1.50% β-CD) was “N”, the “Dissolution After Heating at X° C.” value (M4N 1 mg/mL in 1.50% β-CD, 90°) was “N at 90°” and the “Dissolution After Rotation” value (M4N 1 mg/mL in 2% MC (Low viscosity)) was “N”. For the same molecule, the “Dissolution After Rotation” value (M4N 1 mg/mL in 2.3% HPMC) was “N”, the “Dissolution After Heating” value (M4N 1 mg/mL in 2.3% HPMC) was “N at 90 °C” and the “Dissolution After Rotation” value (M4N 1 mg/mL in 5% EC in EtOH) was “Y”. For the same molecule, the “Dissolution After Rotation” value (M4N 1 mg/mL in 5% γ-CD) was “N”, the “Dissolution After Heating at X° C.” value (M4N 1 mg/mL in 5% γ-CD, 90°) was “N at 90°” and the “Dissolution After Rotation” value (M4N 1 mg/mL in 15% α-CD) was “N”. The “Dissolution After Heating at X° C.” value (M4N 1 mg/mL in 15% α-CD, 90°) was “N at 90°”, the “Dissolution After Cool Down” value (M4N 1 mg/mL in 20% HP-β-CD) was “Y” and the “Dissolution After Rotation” value (M4N 1 mg/mL in 20% HP-β-CD) was “N”. The “Dissolution After Rotation” value (M4N 1 mg/mL in 20% HP-β-CD in saline) was “N”, the “Dissolution After Heating at X° C.” value (M4N 1 mg/mL in 20% HP-β-CD, 90°) was “Y at 90°” and the “Dissolution After Cool Down” value (M4N 1 mg/mL in 30% HP-β-CD) was “Y”. For the same molecule, the “Dissolution After Rotation” value (M4N 1 mg/mL in 30% HP-β-CD) was “N”, the “Dissolution After Heating at X° C.” value (M4N 1 mg/mL in 30% HP-β-CD, 90°) was “Y at 90°” and the “Dissolution After Cool Down” value (M4N 1 mg/mL in 40% HP-β-CD) was “Y”. The “Dissolution After Rotation” value (M4N 1 mg/mL in 40% HP-β-CD) was “N”, the “Dissolution After Heating at X° C.” value [1] was “N” and the “Dissolution After Rotation” value [1] was “N”. The “Dissolution After Rotation” value (M4N 1 mg/mL in 40% HP-β-CD, 2.5% PG (v/v)) was “N”, the “Dissolution After Heating at X° C.” value (M4N 1 mg/mL in 40% HP-β-CD, 2.5% PG (v/v), 80°) was “N at 80°” and the “Dissolution After Heating at X° C.” value (M4N 1 mg/mL in 40% HP-β-CD, 80°) was “Y at 80°”. The “Dissolution After Cool Down” value (M4N 1 mg/mL in 50% HP-β-CD) was “Y”, the “Dissolution After Rotation” value (M4N 1 mg/mL in 50% HP-β-CD) was “N” and the “Dissolution After Rotation” value (M4N 1 mg/mL in 50% HP-β-CD, 0.5% CMC) was “Suspension”. The “Dissolution After Cool-Down” value [2] was “Y”, the “Dissolution After Rotation” value [2] was “N” and the “Dissolution After Rotation” value (M4N 1 mg/mL in 50% HP-β-CD, 0.5% HPMC, other experiment, no heat) was “Suspension”. The “Dissolution After Cool Down” value [3] was “Y”, the “Dissolution After Rotation” value [3] was “N” and the “Dissolution After Heating at X° C.” value (M4N 1 mg/mL in 50% HP-β-CD, 1.25% PVP (w/v), 90°) was “Y at 90°”. For the same molecule, the “Dissolution After Heating at X° C.” value (M4N 1 mg/mL in 50% HP-β-CD, 90°) was “Y at 90°”, the “Dissolution After Cool-Down” value (M4N 1 mg/mL in Corn Oil) was “Y” and the “Dissolution After Cool Down” value [4] was “Y”. The “Dissolution After Rotation” value [4] was “N”, the “Dissolution After Heating at X° C.” value (M4N 3.13 mg/mL in 5% HP-β-CD, 12.5% PEG 300 (v/v), 60°) was “Y at 60°” and the “Dissolution After Cool Down” value [5] was “Y”. The “Dissolution After Rotation” value [5] was “N”, the “Dissolution After Heating at X° C.” value (M4N 4.17 mg/mL in 6.7% HP-β-CD, 16.7% PEG 300 (v/v), 60°) was “Y at 60°” and the “Dissolution After Cool Down” value [6] was “Y”. For the same molecule, the “Dissolution After Rotation” value [6] was “N”, the “Dissolution After Heating at X° C.” value (M4N 6.25 mg/mL in 10% HP-β-CD, 25% PEG 300 (v/v), 60°) was “Y at 60°” and the “Dissolution After Rotation” value (M4N 10 mg/mL in 1% HPMC) was “suspension”. The “Dissolution After Rotation” value (M4N 10 mg/mL in 1.50% β-CD) was “N”, the “Dissolution After Heating at X° C.” value (M4N 10 mg/mL in 1.50% β-CD, 90°) was “N at 90°” and the “Dissolution After Rotation” value (M4N 10 mg/mL in 2.3% HPMC) was “N”. For the same molecule, the “Dissolution After Heating” value (M4N 10 mg/mL in 2.3% HPMC) was “N at 90 °C”, the “Dissolution After Cool-Down” value (M4N 10 mg/mL in 5% EC in EtOH) was “Y” and the “Dissolution After Rotation” value (M4N 10 mg/mL in 5% EC in EtOH) was “N”. For the same molecule, the “Dissolution After Rotation” value (M4N 10 mg/mL in 15% α-CD) was “N”, the “Dissolution After Heating at X° C.” value (M4N 10 mg/mL in 15% α-CD, 90°) was “N at 90°” and the “Dissolution After Rotation” value (M4N 10 mg/mL in 20% HP-β-CD) was “N”. The “Dissolution After Rotation” value (M4N 10 mg/mL in 20% HP-β-CD in saline) was “N”, the “Dissolution After Heating at X° C.” value (M4N 10 mg/mL in 20% HP-β-CD, 90°) was “N at 90°” and the “Dissolution After Cool Down” value (M4N 10 mg/mL in 30% HP-β-CD) was “Y”. For the same molecule, the “Dissolution After Rotation” value (M4N 10 mg/mL in 30% HP-β-CD) was “N” and the “Dissolution After Heating at X° C.” value (M4N 10 mg/mL in 30% HP-β-CD, 90°) was “Y at 90°”.
